For assay [1], the system named is PHKG1 or PHKG2 (rabbit). Nature of the assay: radiometric filter-binding kinase assay. Conditions: compound 1.0 µM; ATP 100 µM; accession and sequence are those of the human protein.
For assay [2], the target named is CSNK2A1 or CSNK2A2 (human) (UniProt P19784+P68400). Conditions: ATP 100 µM.
Assay [3] concerns SGK1 (human), O00141 [S422D]. Particulars: ATP 100 µM.
Assay [4] concerns the target MAPKAPK2 (human) (UniProt P49137). Conditions: ATP 100 µM.
Assay [5] deals with PDPK1 (human) (UniProt O15530). Conditions: ATP 100 µM.
Chain of PDPK1 (human) (O15530 whole entry, looked up): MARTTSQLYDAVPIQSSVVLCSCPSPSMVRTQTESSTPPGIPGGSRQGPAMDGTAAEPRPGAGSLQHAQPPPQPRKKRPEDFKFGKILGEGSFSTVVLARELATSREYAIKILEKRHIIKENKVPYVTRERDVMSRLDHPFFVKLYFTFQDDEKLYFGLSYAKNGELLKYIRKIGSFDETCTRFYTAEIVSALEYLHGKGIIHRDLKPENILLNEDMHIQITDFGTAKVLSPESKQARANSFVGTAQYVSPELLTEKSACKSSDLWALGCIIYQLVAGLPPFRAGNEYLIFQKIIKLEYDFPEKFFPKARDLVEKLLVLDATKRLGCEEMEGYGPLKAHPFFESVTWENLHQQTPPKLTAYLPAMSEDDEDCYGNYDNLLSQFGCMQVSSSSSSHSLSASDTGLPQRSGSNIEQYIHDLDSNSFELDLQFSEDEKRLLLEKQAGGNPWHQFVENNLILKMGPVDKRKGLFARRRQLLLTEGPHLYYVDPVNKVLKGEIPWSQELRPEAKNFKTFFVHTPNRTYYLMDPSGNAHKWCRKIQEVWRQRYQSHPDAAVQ
For assay [6], the target named is PRKCA (human) (UniProt P17252). Particulars: ATP 100 µM.
In assay [7] the target is RPS6KA5 KD1 KD2 (human) (UniProt O75582). Particulars: ATP 100 µM.
The target of assay [8] is AKT1 (human) (UniProt P31749). Conditions: compound 1.0 µM; ATP 100 µM.
Chain of AKT1 (human) (P31749 whole entry, looked up): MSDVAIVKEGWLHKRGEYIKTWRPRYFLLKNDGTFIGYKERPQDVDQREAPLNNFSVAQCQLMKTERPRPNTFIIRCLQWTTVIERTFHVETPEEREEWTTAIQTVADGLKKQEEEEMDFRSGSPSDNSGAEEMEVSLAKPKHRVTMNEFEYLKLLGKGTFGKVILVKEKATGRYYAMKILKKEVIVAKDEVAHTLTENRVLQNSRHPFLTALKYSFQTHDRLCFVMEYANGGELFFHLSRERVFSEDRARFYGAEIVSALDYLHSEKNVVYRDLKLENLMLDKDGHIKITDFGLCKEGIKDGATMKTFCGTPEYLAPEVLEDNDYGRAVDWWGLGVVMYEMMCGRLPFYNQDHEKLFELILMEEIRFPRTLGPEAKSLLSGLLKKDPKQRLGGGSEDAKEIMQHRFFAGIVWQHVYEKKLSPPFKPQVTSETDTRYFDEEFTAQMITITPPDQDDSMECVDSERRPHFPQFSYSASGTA
Assay [9] relates to RPS6KB1 (human), P23443 [T412E]. Particulars: ATP 100 µM.
Chain of RPS6KB1 (human), P23443 [T412E] (P23443 whole entry T412E, looked up): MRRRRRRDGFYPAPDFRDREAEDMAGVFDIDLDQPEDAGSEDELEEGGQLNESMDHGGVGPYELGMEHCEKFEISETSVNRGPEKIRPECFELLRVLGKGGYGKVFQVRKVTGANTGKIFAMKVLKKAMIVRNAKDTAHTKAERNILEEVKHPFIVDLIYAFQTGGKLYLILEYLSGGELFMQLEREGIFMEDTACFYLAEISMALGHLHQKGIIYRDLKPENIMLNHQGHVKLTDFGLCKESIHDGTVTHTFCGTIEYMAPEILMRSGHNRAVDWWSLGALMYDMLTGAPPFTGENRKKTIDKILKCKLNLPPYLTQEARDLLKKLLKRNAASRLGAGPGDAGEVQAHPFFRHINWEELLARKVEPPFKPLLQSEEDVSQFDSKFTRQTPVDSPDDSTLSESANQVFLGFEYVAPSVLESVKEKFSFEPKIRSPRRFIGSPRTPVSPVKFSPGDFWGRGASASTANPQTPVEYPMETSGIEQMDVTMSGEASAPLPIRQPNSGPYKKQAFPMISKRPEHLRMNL
Assay [10] has as its target MAPK12 (human) (UniProt P53778). Particulars: ATP 100 µM.
The target of assay [11] is MAPK8 (human) (UniProt P45983). Conditions: ATP 100 µM.
Chain of MAPK8 (human) (P45983 whole entry, looked up): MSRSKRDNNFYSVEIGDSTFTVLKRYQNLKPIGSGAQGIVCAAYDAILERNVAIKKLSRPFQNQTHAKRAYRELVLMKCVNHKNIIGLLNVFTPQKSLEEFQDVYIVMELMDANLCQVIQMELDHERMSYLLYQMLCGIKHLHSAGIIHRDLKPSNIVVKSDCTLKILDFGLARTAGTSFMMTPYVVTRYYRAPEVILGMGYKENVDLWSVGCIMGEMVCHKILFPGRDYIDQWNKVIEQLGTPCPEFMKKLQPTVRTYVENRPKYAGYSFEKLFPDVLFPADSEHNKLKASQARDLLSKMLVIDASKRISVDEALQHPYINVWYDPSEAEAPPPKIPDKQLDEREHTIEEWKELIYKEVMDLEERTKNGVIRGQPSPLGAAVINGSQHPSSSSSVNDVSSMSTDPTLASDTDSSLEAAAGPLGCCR
In assay [12] the target is CHEK1 (human) (UniProt O14757). Particulars: ATP 100 µM.
Chain of CHEK1 (human) (O14757 whole entry, looked up): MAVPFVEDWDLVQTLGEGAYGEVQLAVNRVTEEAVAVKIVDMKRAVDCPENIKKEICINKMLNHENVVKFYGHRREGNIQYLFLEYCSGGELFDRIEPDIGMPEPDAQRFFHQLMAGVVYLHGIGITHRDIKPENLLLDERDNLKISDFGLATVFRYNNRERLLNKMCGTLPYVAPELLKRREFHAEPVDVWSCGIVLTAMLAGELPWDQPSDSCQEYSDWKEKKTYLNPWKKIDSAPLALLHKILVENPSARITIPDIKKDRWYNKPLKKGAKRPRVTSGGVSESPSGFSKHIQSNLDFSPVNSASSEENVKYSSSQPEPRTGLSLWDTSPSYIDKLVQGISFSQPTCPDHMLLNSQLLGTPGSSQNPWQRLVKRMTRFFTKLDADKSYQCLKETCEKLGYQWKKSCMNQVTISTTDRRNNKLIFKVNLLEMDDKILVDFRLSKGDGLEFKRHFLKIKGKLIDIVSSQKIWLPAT
Assay [13] addresses GSK3B (human) (UniProt P49841). Conditions: ATP 100 µM.
The subject of assay [14] is MAP2K1 (rabbit). Particulars: compound 1.0 µM; accession and sequence are those of the human protein.
Assay [15] has as its target LCK (human) (UniProt P06239). Conditions: ATP 100 µM.
Assay [16] has as its system ROCK2 (rat). Conditions: accession and sequence are those of the human protein.
Assay [17] deals with PRKAA1 or PRKAA2 (rat). The experiment in a line: radiometric filter-binding kinase assay. Conditions: compound 1.0 µM; ATP 100 µM; accession and sequence are those of the human protein.
The test system of assay [18] is PRKACA or PRKACB (cow). Nature of the assay: radiometric filter-binding kinase assay. Conditions: compound 1.0 µM; accession and sequence are those of the human protein.
Assay [19] has as its system PHKG1 or PHKG2 (rabbit). Particulars: compound 10.0 µM; accession and sequence are those of the human protein.
The target of assay [20] is MAPK13 (human) (UniProt O15264). Particulars: ATP 100 µM.
The target in assay [21] is MAPKAPK5 (human) (UniProt Q8IW41). Particulars: compound 1.0 µM; ATP 100 µM.
For assay [22], the target named is CAMK2A or CAMK2B or CAMK2D or CAMK2G (human) (UniProt Q13555+Q13557+Q9UQM7+Q13554). Particulars: compound 1.0 µM; ATP 100 µM.
Assay [23] concerns the target MAPK14 (human) (UniProt Q16539). Particulars: compound 1.0 µM; ATP 100 µM.
The test system of assay [24] is RPS6KA3 KD1 KD2 (rabbit). The experiment in a line: radiometric filter-binding kinase assay. Conditions: compound 1.0 µM; ATP 100 µM; accession and sequence are those of the human protein.
Assay [25] addresses MAP2K7 (human) (UniProt O14733). Particulars: compound 10.0 µM; ATP 100 µM.
Assay [26] concerns the target MAPK11 (human) (UniProt Q15759). Conditions: ATP 100 µM.
Assay [27] has as its system PRKAA1 or PRKAA2 (rat). Particulars: compound 10.0 µM; accession and sequence are those of the human protein.
The subject of assay [28] is MAPK1 (mouse). Conditions: compound 10.0 µM; accession and sequence are those of the human protein.
Assay [29] concerns the target MAP2K4 (human) (UniProt P45985). Particulars: compound 10.0 µM; ATP 100 µM.
Assay [30] concerns PRKACA or PRKACB (cow). Conditions: compound 10.0 µM; accession and sequence are those of the human protein.
Assay [31] concerns the target MAP2K6 (human) (UniProt P52564). Particulars: compound 10.0 µM; ATP 100 µM.
Assay [32] concerns RPS6KA3 KD1 KD2 (rabbit). Particulars: compound 10.0 µM; accession and sequence are those of the human protein.
The target of assay [33] is MAP2K3 (human) (UniProt P46734). Conditions: compound 10.0 µM; ATP 100 µM.
In assay [34] the target is MYLK (chicken). Particulars: accession and sequence are those of the human protein.
Assay [35] concerns PIK3CG (cow). Particulars: compound 1.0 µM; accession and sequence are those of the human protein.
Assay [36] relates to MYLK (chicken). The experiment in a line: radiometric filter-binding kinase assay. Conditions: compound 1.0 µM; accession and sequence are those of the human protein.
The subject of assay [37] is MYLK2 (rabbit). Nature of the assay: radiometric filter-binding kinase assay. Conditions: compound 1.0 µM; ATP 100 µM; accession and sequence are those of the human protein.

Experimental findings from the kinase profiling compilation of Christmann-Franck et al. (2016) are described below.

Chain of SGK1 (human), O00141 [S422D] (O00141 whole entry S422D, looked up): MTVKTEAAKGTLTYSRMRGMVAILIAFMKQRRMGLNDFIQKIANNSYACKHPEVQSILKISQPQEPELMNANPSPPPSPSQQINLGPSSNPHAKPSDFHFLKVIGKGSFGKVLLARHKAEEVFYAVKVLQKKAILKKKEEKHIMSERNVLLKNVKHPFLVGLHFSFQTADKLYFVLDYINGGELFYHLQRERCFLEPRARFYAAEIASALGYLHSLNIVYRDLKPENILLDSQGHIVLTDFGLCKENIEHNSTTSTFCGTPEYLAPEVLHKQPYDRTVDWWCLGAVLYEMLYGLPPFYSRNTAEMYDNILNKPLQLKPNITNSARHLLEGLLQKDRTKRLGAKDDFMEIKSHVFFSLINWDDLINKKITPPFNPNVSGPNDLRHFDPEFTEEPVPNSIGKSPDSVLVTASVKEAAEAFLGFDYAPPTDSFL
Chain of MAPKAPK2 (human) (P49137 whole entry, looked up): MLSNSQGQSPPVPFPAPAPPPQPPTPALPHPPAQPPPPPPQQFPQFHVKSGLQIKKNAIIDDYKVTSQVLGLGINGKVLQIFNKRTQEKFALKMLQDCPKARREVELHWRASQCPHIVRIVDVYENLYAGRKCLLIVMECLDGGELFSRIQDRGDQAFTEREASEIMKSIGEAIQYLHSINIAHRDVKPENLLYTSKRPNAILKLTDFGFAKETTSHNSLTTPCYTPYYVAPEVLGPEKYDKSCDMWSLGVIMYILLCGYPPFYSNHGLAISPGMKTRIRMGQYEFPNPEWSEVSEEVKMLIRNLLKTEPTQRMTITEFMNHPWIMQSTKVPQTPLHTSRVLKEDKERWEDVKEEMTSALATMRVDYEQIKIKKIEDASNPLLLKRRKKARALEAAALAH
Chain of GSK3B (human) (P49841 whole entry, looked up): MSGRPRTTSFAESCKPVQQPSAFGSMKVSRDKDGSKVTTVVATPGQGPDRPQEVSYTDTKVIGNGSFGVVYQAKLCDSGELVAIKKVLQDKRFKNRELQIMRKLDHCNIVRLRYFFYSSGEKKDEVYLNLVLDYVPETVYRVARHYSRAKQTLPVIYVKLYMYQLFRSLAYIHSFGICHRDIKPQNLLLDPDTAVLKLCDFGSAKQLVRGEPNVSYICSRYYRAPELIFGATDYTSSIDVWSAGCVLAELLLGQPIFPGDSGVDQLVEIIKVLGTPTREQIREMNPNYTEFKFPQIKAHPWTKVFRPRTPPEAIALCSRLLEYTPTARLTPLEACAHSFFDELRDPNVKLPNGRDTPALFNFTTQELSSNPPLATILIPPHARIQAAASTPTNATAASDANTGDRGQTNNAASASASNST
Chain of LCK (human) (P06239 whole entry, looked up): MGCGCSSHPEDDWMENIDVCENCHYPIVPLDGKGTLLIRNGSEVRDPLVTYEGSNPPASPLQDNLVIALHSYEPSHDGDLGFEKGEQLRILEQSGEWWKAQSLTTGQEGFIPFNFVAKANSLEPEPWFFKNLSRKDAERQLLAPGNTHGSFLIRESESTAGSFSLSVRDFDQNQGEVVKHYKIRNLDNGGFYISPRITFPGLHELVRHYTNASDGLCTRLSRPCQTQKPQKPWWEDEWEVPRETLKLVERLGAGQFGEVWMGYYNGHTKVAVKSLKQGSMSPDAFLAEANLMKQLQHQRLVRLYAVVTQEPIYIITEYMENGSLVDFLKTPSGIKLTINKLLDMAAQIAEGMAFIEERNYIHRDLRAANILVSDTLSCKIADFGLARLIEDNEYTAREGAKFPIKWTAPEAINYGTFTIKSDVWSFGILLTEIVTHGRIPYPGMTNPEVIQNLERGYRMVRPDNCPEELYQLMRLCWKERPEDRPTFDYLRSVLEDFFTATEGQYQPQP

For the compound `CN1C(=O)C(c2c[nH]c3ccccc23)=C(c2c[nH]c3ccccc23)C1=O`, the residual activity in assay [1] stood at 100%.

With `CO[C@H]1CC2CC[C@@H](C)[C@@](O)(O2)C(=O)C(=O)N2CCCC[C@H]2C(=O)OC([C@H](C)C[C@@H]2CC[C@@H](O)[C@H](OC)C2)CC(=O)[C@H](C)/C=C(\C)[C@@H](O)[C@@H](OC)C(=O)[C@H](C)C[C@H](C)/C=C/C=C/C=C/1C` (some centres not stated), the residual activity in assay [2] (compound 1.0 µM) was found to be 104%; in [3] (compound 1.0 µM), 108%; in [4] (compound 1.0 µM), 125%; in assay [5] (compound 1.0 µM), 110%; in assay [6] (compound 1.0 µM), 99%; in [7] (compound 1.0 µM) it was 104%. Besides, the residual activity was 91% in [8]; 109% in [9] (compound 1.0 µM); 100% in assay [10] (compound 1.0 µM); 98% in assay [11] (compound 1.0 µM); 102% in assay [12] (compound 1.0 µM); 89% in assay [13] (compound 1.0 µM). Also, the residual activity worked out at 99% in assay [14]; 102% in [15] (compound 1.0 µM); 92% in assay [16] (compound 1.0 µM); 103% in [1]; 106% in assay [17]; 104% in [18].

As to `CCCCCCOC(=O)[C@@]1(O)C[C@H]2O[C@]1(C)n1c3ccccc3c3c4c(c5c6ccccc6n2c5c31)C(=O)NC4`, the residual activity in assay [19] worked out at 0%.

Consider `CN[C@@H]1C[C@@H]2O[C@@](C)([C@@H]1OC)n1c3ccccc3c3c4c(c5c6ccccc6n2c5c31)C(=O)N[C@@H]4O`, for which the residual activity was 77% in [2] (compound 1.0 µM); 90% in assay [4] (compound 1.0 µM); 91% in assay [20] (compound 1.0 µM); 0% in [5] (compound 1.0 µM); 1% in [6] (compound 1.0 µM); 19% in assay [7] (compound 1.0 µM). Besides, the residual activity in assay [21] turned out to be 77%; in [8] it was 31%; in assay [9] (compound 1.0 µM) it was 28%; in assay [10] (compound 1.0 µM), 76%; in assay [11] (compound 1.0 µM), 98%; in assay [12] (compound 1.0 µM), 3%. Further, the residual activity in assay [13] (compound 1.0 µM) is 83%; in [22], 69%; in [14], 90%; in assay [15] (compound 1.0 µM), 7%; in assay [23] it was 92%; in assay [16] (compound 1.0 µM) it was 22%. The residual activity in [1] was determined as 0%; in assay [17] it was 1%; in assay [18], 39%; in assay [24] it was 5%.

Take `N#CC(=C(\N)Sc1ccccc1N)/C(C#N)=C(/N)Sc1ccccc1N`: the residual activity in [2] (compound 10.0 µM) was determined as 107%; in assay [3] (compound 10.0 µM) it was 91%; in assay [4] (compound 10.0 µM), 102%; in [20] (compound 10.0 µM), 111%; in assay [5] (compound 10.0 µM), 99%; in assay [6] (compound 10.0 µM), 92%. Besides, the residual activity in assay [19] stood at 101%; in [7] (compound 10.0 µM), 104%; in assay [25], 89%; in assay [26] (compound 10.0 µM) it was 90%; in assay [27], 85%; in [9] (compound 10.0 µM), 92%. The residual activity came out at 92% in assay [28]; 100% in assay [10] (compound 10.0 µM); 96% in assay [11] (compound 10.0 µM); 95% in [12] (compound 10.0 µM); 81% in assay [29]; 105% in [13] (compound 10.0 µM). Moreover, the residual activity in [30] amounted to 95%; in [31] it was 79%; in assay [15] (compound 10.0 µM) it was 87%; in assay [32], 88%; in [16] (compound 10.0 µM) it was 94%; in assay [33], 114%.

As to `O=C1NCc2c1c1c3ccccc3[nH]c1c1[nH]c3ccccc3c21`, in assay [19], the residual activity was found to be 0%.

Turning to `COC[C@H]1OC(=O)c2coc3c2[C@@]1(C)C1=C(C3=O)[C@@H]2CCC(=O)[C@@]2(C)C[C@H]1OC(C)=O`, the residual activity in [2] (compound 1.0 µM) amounted to 98%; in [3] (compound 1.0 µM), 101%; in assay [4] (compound 1.0 µM) it was 102%; in assay [5] (compound 1.0 µM) it was 88%; in [6] (compound 1.0 µM), 100%; in [7] (compound 1.0 µM), 99%. For the same compound, the residual activity in assay [21] is 85%; in [26] (compound 1.0 µM), 74%; in [8], 96%; in assay [9] (compound 1.0 µM) it was 106%; in [10] (compound 1.0 µM), 75%; in assay [11] (compound 1.0 µM) it was 97%. The residual activity was 99% in [12] (compound 1.0 µM); 0% in assay [35]; 96% in [14]; 95% in assay [15] (compound 1.0 µM); 86% in assay [23]; 91% in assay [16] (compound 1.0 µM). Moreover, the residual activity in [1] worked out at 100%; in [17] it was 106%; in assay [36], 4%; in [18], 97%; in assay [24], 92%; in assay [37] it was 104%. In [34], this compound registered an IC50 of 260 nM.
